Data set [1] is described as follows: Preventing effect on photo-oxidation of methionine by hydroxyl radical. It is filed as biochemical. As to conditions: 1 mM thiotaurine, 1 mM methionine, riboflavin, NADH, Fe (II) EDTA, UVA 370 nm. Here is the method:
In a quartz cell was placed 1 mM of methionine, riboflavin, NADH and Fe (II) EDTA, and super high pressure mercury lamp rays (UVA 370 nm) were irradiated thereto, thus presenting a control. Next, 1 mM of thiotaurine was added to the same system mentioned above and the reaction was initiated by light irradiation as before, while the two reactions were sequentially followed by HPLC and finally compared.
These systems, to which the Fe (II) chelate compound and electron donor, NADH, were added in the presence of riboflavin, produced the HO.

Data set [2] can be described thus: Influence of externally applied thiotaurine on UVB rays (erythema, SPF). It is filed as in vivo, male Hartley guinea pigs. Here is the method:
Thiotaurine was added to a base cream of the composition indicated in Table 5, at concentrations of 5.0% (w/w) and 7.5% (w/w), respectively.
Experimental method: In this experiment, male Hartley guinea pigs of body weight 230-250 g were used. The back, abdomen and side hair of the guinea pigs was first roughly removed with hair clippers, after which the hair was completely removed with care using a Brown electric shaver. On the morning of the next day, the hair was again removed, the body weights measured, and the groups divided. The UVB radiation was applied in 10 stages of 0.075, 0.1, 0.15, 0.2, 0.3, 0.4, 0.5, 0.6, 0.7, and 0.8. Five minutes prior to irradiation, the base cream was applied to the control area, and the thiotaurine-containing cream preparations were applied to the test area. Then observations were made 2, 4, 6, 8, and 24 hours later to determine the presence of erythema, visually.
1; Difficult to determine presence or absence of erythema
2; Erythema clearly present but edges unclear
3; Erythema clearly present and edges clear

Data set [3] can be described thus: Reactivity with singlet oxygen, riboflavin (Rf)/h.nu.-system. As to conditions: for thiotaurine reacted with ^1 O2 (decomposition): absence of NaN3, pH 7.8. Type of data set: biochemical. Here is the method: Fourteen milligrams of thiotaurine and 1.5 mg of riboflavin (Rf) were dissolved in 50 ml of a wing buffer solution (pH 7.8), after which light irradiation (FL20SBRF Toshiba, UVA 0.1 mW/cm^2, UVB 0.1 mW/cm^2, visible light 0.4 mW/cm^2) was initiated in the presence and in the absence of 34 mg of sodium azide (NaN3). After continuously reacting the product from the reactant solution with dansyl chloride, a fluorescent reagent, high-performance liquid chromatography was used for separation and analysis.
The conditions for the high-performance liquid chromatography were as listed below.
Mobile phase: 0.1M phosphate buffer solution: THF ([…]): acetonitrile=670:40:350
The results obtained are shown in FIG. 1 as percentages (%) for the proportions of thiotaurine, hypotaurine and taurine at each hour shown.
It is assumed that in the Rf/h.nu.-system ^1 O2 is produced according to the formula listed below as Chemical formula 7.

Data set [4] can be described thus: H2 O2 scavenging function. It is filed as biochemical. Here is the method:
In a quartz cell were placed 1 mM of thiotaurine and […] of H2 O2, and the change in thiotaurine was measured by HPLC while irradiating with light.

For `NCCS(=O)(O)=S` [thiotaurine, Aminoethyl thiosulfonate], the “inhibition of methionine oxidation with HO.” value in data set [1] was “inhibits the methionine oxidation with HO., and has a scavenging effect against hydroxy radicals”. The SPF value was determined as 3.6 in data set [2] (5% (w/w) cream, 2 hr post-irradiation); 3.6 in data set [2] (5% (w/w) cream, 4 hr post-irradiation); 3.8 in data set [2] (5% (w/w) cream, 6 hr post-irradiation); 4.1 in data set [2] (5% (w/w) cream, 8 hr post-irradiation); 5.0 in data set [2] (5% (w/w) cream, 24 hr post-irradiation); 4.4 in data set [2] (7.5% (w/w) cream, 2 hr post-irradiation). Further, the SPF value in data set [2] (7.5% (w/w) cream, 4 hr post-irradiation) came to 4.3; in data set [2] (7.5% (w/w) cream, 6 hr post-irradiation) it was 4.3; in data set [2] (7.5% (w/w) cream, 8 hr post-irradiation) it was 4.3; in data set [2] (7.5% (w/w) cream, 24 hr post-irradiation) it was 5.7. The “thiotaurine reacted with ^1 O2 (decomposition)” value was determined as 40% in data set [3] (2 hours) and 90% in data set [3] (6 hours). In data set [3] (6 hours, presence of NaN3 (^1 O2 quencher), pH 7.8), the thiotaurine remaining entry is on record as “approximately 85%”. Moreover, the “oxidation of thiotaurine to taurine and hypotaurine with H2 O2, time” value in data set [4] (light irradiation, 1 mM thiotaurine) is given as “about 3 hours”. In data set [4] (no light irradiation), the “reaction with H2 O2” value is listed as “did not react at all”.

The values are drawn from US5601806A, “Methods for scavenging active oxygen compounds and preventing damage from ultra violet B rays using taurine analogues” (Sogo Pharmaceutical Company Limited, priority 1991, dated 1997).
